Test results reported in patent US20100076005A1, “ISOCARBOSTYRIL ALKALOID DERIVATIVES HAVING ANTI-PROLIFERATIVE AND ANTI-MIGRATORY ACTIVITIES” (Unibioscreen SA, priority 2006, published 2010).

Experiments:
[1] = tested on: six human cancer cell lines (prostate, glioma, pancreas, colon, lung, and breast cancers); assay: MTT test of overall cell growth, mean of six human cancer cell lines; type: cell-based; conditions: 72 hours of incubation, mean of the six human cancer cell lines, range of molar concentrations giving 50% inhibition of overall tumor cell growth
Procedure: MTT tests were performed in order to rapidly, i.e. within 5 days, measure the effect of compounds of this invention on the overall cell growth. The test measured the number of metabolically active living cells that were able to transform the yellow product 3-(4,5-dimethylthiazol-2-yl)-2,5-diphenyl tetrazolium bromide (herein referred as MTT) into the blue product formazan dye by mitochondrial reduction. The amount of formazan obtained at the end of the experiment, measured by means of a spectrophotometer, is directly proportional to the number of living cells.
Six human cancer cell lines described in table 7 were used in the following MTT tests. These cancer cell lines cover six histological cancer types, being prostate, glioma, pancreas, colon, lung, and breast cancers.
To perform the assay, cells were allowed to grow in 96-well micro-wells with a flat bottom with an amount of 100 μl of cell suspension per well with 1,000 to 4,000 cells/well depending on the cell type used. Each cell line was seeded in a well known MEM 10% serum culture medium.
The detailed experimental procedure was the following: after a 24-hour period of incubation at 37° C., the culture medium was replaced by 100 μl of fresh medium in which the tested compound was previously dissolved, at the following molar concentrations: 10^−9 M, 5.10^−9 M, […], 10^−7 M, 5.10^−7 M, 10^−6 M, 5.10^−6 M, and […]. Each experiment was repeated 6 times.
After 72 hours of incubation at 37° C. with (experimental conditions) or without (control condition) the compound to be tested, the medium was replaced by 100 μl MTT dissolved in RPMI (1640 without phenol red) at a concentration of 1 mg/ml. The micro-wells were subsequently incubated during 3 hours at 37° C. and centrifuged at 400 g during 10 minutes. MTT was removed and formazan crystals formed were dissolved in 100 μl DMSO. The micro-wells were shaken for 5 minutes and read on a spectrophotometer at wavelengths of 570 nm (maximum formazan absorbance) and 630 nm (background noise).
For each experimental condition, the mean optical density was calculated, allowing the determination of the percentage of remaining living cells in comparison to the control.

[2] = tested on: PC3 (apoptosis-resistant cancer cells); assay: Cellular imaging (computer-assisted phase-contrast microscopy): cell migration and global growth ratio; type: cell-based, human; conditions: PC3, 100 nM; for Ratio GGRtreated cells/GGRcontrol cells: 72 h, global growth ratio; for effect on cell migration: filmed for 72 h
Procedure: (§1) A cellular imaging approach (Debeir et al., Cytometry 60:29-40, 2004; Debeir et al., IEEE Trans Med Imaging 24:697-711, 2005) was used to investigate whether the isocarbostyril alkaloid derivatives of the present invention were able to impair cell proliferation and cell migration in apoptosis-sensitive (U-373MG—see Table 7) as well as apoptosis-resistant (PC3—see Table 7) cancer cells. Cellular imaging relied on the use of computer-assisted phase-contrast microscopy making possible to film the behavior of living cells in culture dishes for several days.
(§2) Cells were seeded in 25-cm^2 at a low density, treated or not with the compounds of the present invention (at a concentration of 100 nM) and filmed thereafter for a period of 72 h. The analysis of the films was performed by two operators, working independently. The effect on cell migration was characterized as +++ (high effect: cell migration of most cells is drastically altered for most of the duration of the film), ++ (medium effect: compound altering cell migration of an important proportion of the cells although less drastically), + (low effect: compound affecting cell migration of a small part of the cell population, or only for a limited part of the 72 h incubation), − (no effect: as compared to the control conditions, no difference is observed). The effect on the overall growth was measured by counting the number of cells on the first (Oh) and the last image (72 h) of each film. The global growth ratio (GGR) was then deduced by dividing the number of cells on the last image by the number of cells on the first image. The ratio GGRtreated cells/GGRcontrol cells, was further calculated thereby obtaining a value that describes the effect of compounds of the present invention on the overall cell growth.

[3] = tested on: U-373MG (apoptosis-sensitive cancer cells); assay: as above; type: cell-based, human; conditions: 100 nM; for Ratio GGRtreated cells/GGRcontrol cells: 72 h, global growth ratio; for effect on cell migration: filmed for 72 h
Procedure: as §1, §2

in vivo = conditions: mouse, maximum tolerated dose, single intravenous dose, healthy mice, survival and weights recorded up to 14 days
Procedure: The maximum tolerated dose (herein after MTD) is defined as the maximum amount of a given drug which can be administered acutely (i.e. in one intraperitoneal, intravenous, subcutaneous or oral single dose) to healthy animals, i.e. animals not grafted with tumors. In this assay, compounds were administered intravenously. The survival times and weights of the animals were recorded up to 14 days post injection. Five different doses of each compound were used for the determination of the MTD index. Each experimental group comprised 3 mice for the determination of the MTD (expressed in mg/kg).

**Q.** With CCOC(=O)COc1c2c(cc3c1C(=O)N(CC(=O)OCC)[C@@H]1C3=C[C@H](OC(C)=O)C(OC(C)=O)[C@H]1OC(C)=O)OCO2 (stereo partly drawn) [Compound 3, ethyl [(2S,3R,4S,4aR)-2,3,4-tris[(methylcarbonyl)oxy]-(1,3)dioxolo(4,5-j)-7-(2-ethoxy-2-oxoethoxy)-6-oxo-2,3,4,4a,5,6-hexahydrophenanthridin--5(3H)-yl]acetate] as the compound, how does the IC50 [1] read?
**A.** > 10000 nM

**Q.** Which IC50 [1] does the source give for O=C(O)COc1c2c(cc3c1C(=O)N[C@@H]1C3=C[C@H](O)[C@@H](O)[C@H]1O)OCO2 [Compound 6, {[(2S,3R,4S,4aR)-2,3,4-trihydroxy-(1,3)dioxolo(4,5-j)-6-oxo-3,4,4a,5-tetrahydrophenanthridin-6(2H)-7-yl]oxy}acetic acid] here?
**A.** 5000 to 10000 nM

**Q.** For O=C(O[C@H]1C=C2c3cc4c(c(O)c3C(=O)N[C@H]2[C@H](O)[C@@H]1O)OCO4)c1ccccc1 [Compound 13, (2S,3S,4S,4aR)-3,4,7-trihydroxy-(1,3)dioxolo(4,5-j)-6-oxo-2,3,4,4a,5,6-hexahydrophenanthridin--2-yl benzoate], which “Ratio GGRtreated cells/GGRcontrol cells” value [2] is on record?
**A.** 0.31

**Q.** What about the “effect on cell migration” value [2] of the same compound?
**A.** +++

**Q.** What about the “Ratio GGRtreated cells/GGRcontrol cells” value [3] of the same compound?
**A.** 0.45

**Q.** And the “effect on cell migration” value [3]?
**A.** ++

**Q.** And the IC50 [1]?
**A.** 10 to 50 nM

**Q.** What about the MTD at 14 days (in vivo) of the same compound?
**A.** 10 mg/kg

**Q.** With CC(=O)O[C@@H]1[C@H](OC(C)=O)[C@@H](OC(C)=O)C=C2c3cc4c(c(O)c3C(=S)N[C@H]21)OCO4 [Compound 4, (2S,3R,4S,4aR)-7-hydroxy-(1,3)dioxolo(4,5-j)-6-thioxo-2,3,4,4a,5,6-hexahydrophenanthridin--2,3,4-triyl triacetate] as the compound, how does the IC50 [1] read?
**A.** 1000 to 5000 nM

**Q.** What about the MTD at 14 days (in vivo) of the same compound?
**A.** 40 mg/kg

**Q.** Which IC50 [1] does the source give for CC(C)C(=O)O[C@H]1C=C2c3cc4c(c(O)c3C(=O)N[C@H]2[C@H](O)[C@@H]1O)OCO4 [Compound 20, (2S,3S,4S,4aR)-3,4,7-trihydroxy-(1,3)dioxolo(4,5-j)-6-oxo-2,3,4,4a,5,6-hexahydrophenanthridin-2-yl 2-methylpropanoate] here?
**A.** 10 to 50 nM

**Q.** What about the MTD at 14 days (in vivo) of the same compound?
**A.** 40 mg/kg

**Q.** For O=C1N[C@@H]2C(=C[C@H](O)[C@@H](O)[C@H]2OS(=O)(=O)[O-])c2cc3c(c(O)c21)OCO3.[Na+] [Compound 1, (2S,3R,4S,4aR)-2,3,7-trihydroxy-(1,3)dioxolo(4,5-j)-6-oxo-2,3,4,4a,5,6-hexahydrophenanthridin-4-yl sodium sulfate], which IC50 [1] is on record?
**A.** 1000 to 5000 nM

**Q.** And the MTD at 14 days (in vivo)?
**A.** > 80 mg/kg

**Q.** Which results are given for CCC(=O)O[C@H]1C=C2c3cc4c(c(O)c3C(=O)N[C@H]2[C@H](O)[C@@H]1O)OCO4 [Compound 19, (2S,3S,4S,4aR)-3,4,7-trihydroxy-(1,3)dioxolo(4,5-j)-6-oxo-2,3,4,4a,5,6-hexahydrophenanthridin-2-yl propionate]?
**A.** IC50 [1]: 10 to 50 nM; MTD at 14 days (in vivo): 40 mg/kg

**Q.** For COC(=O)COc1c2c(cc3c1C(=O)N[C@@H]1C3=C[C@H](O)[C@@H](O)[C@H]1O)OCO2 [Compound 5, methyl {[(2S,3R,4S,4aR)-2,3,4-trihydroxy-(1,3)dioxolo(4,5-j)-6-oxo-3,4,4a,5-tetrahydrophenanthridin-6(2H)-7-yl]oxy}acetate], which IC50 [1] is on record?
**A.** 5000 to 10000 nM

**Q.** Which “Ratio GGRtreated cells/GGRcontrol cells” value [2] does the source give for CC(=O)O[C@H]1C=C2c3cc4c(c(O)c3C(=O)N[C@H]2[C@H](O)[C@@H]1O)OCO4 [Compound 11, (2S,3S,4S,4aR)-3,4,7-trihydroxy-(1,3)dioxolo(4,5-j)-6-oxo-2,3,4,4a,5,6-hexahydrophenanthridin--2-yl acetate] here?
**A.** 0.40

**Q.** What about the “effect on cell migration” value [2] of the same compound?
**A.** +++

**Q.** And the “Ratio GGRtreated cells/GGRcontrol cells” value [3]?
**A.** 0.42

**Q.** And the “effect on cell migration” value [3]?
**A.** ++

**Q.** And the IC50 [1]?
**A.** 100 to 500 nM

**Q.** And the MTD at 14 days (in vivo)?
**A.** > 80 mg/kg

**Q.** With CC(=O)Oc1c2c(cc3c1C(=O)N[C@@H]1C3=C[C@H](OC(C)=O)[C@@H](O)[C@H]1O)OCO2 [Compound 10, (2S,3S,4S,4aR)-3,4-dihydroxy-(1,3)dioxolo(4,5-j)-6-oxo-2,3,4,4a,5,6-hexahydrophenanthridin--2,7-diyl diacetate] as the compound, how does the “Ratio GGRtreated cells/GGRcontrol cells” value [2] read?
**A.** 1.38

**Q.** What about the “effect on cell migration” value [2] of the same compound?
**A.** +

**Q.** And the “Ratio GGRtreated cells/GGRcontrol cells” value [3]?
**A.** 1.06

**Q.** What about the “effect on cell migration” value [3] of the same compound?
**A.** −

**Q.** What about the IC50 [1] of the same compound?
**A.** 100 to 500 nM

**Q.** What about the MTD at 14 days (in vivo) of the same compound?
**A.** > 80 mg/kg

**Q.** With CCOC(=O)COc1c2c(cc3c1C(=O)N[C@@H]1C3=C[C@H](OC(C)=O)C(OC(C)=O)[C@H]1OC(C)=O)OCO2 (stereo partly drawn) [Compound 2, ethyl ({(2S,3R,4S,4aR)-2,3,4-tris[(methylcarbonyl)oxy]-(1,3)dioxolo(4,5-j)-6-oxo-2,3,4,4a,5,6-hexahydrophenanthridin--7-yl}oxy)acetate] as the compound, how does the IC50 [1] read?
**A.** > 10000 nM

**Q.** With O=C1N[C@@H]2C(=C[C@H](O)[C@@H](O)[C@H]2O)c2cc3c(c(OCc4ccc5ccccc5c4)c21)OCO3 [Compound 8] as the compound, how does the IC50 [1] read?
**A.** 1000 to 5000 nM

**Q.** What about the MTD at 14 days (in vivo) of the same compound?
**A.** > 80 mg/kg

**Q.** For CC(=O)O[C@@H]1[C@H](OC(C)=O)[C@@H](OC(C)=O)C=C2c3cc4c(c(OCc5ccc6ccccc6c5)c3C(=O)N[C@H]21)OCO4 [Compound 7, (2S,3R,4S,4aR)-7-[(2-naphthylmethoxy]-(1,3)dioxolo(4,5-j)-6-oxo-2,3,4,4a,5,6-hexahydrophenanthridin-2,3,4-triyl triacetate], which IC50 [1] is on record?
**A.** 1000 to 5000 nM

**Q.** For O=C1N[C@@H]2C(=C[C@H](O)[C@@H](O)[C@H]2O)c2cc3c(c(O)c21)OCO3 [narciclasine, reference compound], which IC50 [1] is on record?
**A.** 10 to 50 nM

**Q.** For O=C1c2c(cc3c(c2OCc2ccccc2)OCO3)C2=C[C@H](O)[C@@H](O)[C@@H](O)[C@@H]2N1Cc1ccccc1 [Compound 9, (2S,3R,4S,4aR)-2,3,4-trihydroxy-7-[benzyloxy]-5-benzyl-(1,3)dioxolo(4,5-j)-3,4,4a,5-tetrahydrophenanthridin-6(2H)-one], which IC50 [1] is on record?
**A.** > 10000 nM

**Q.** What about the MTD at 14 days (in vivo) of the same compound?
**A.** 40 mg/kg
